According to patent US20160115200A1, “New Use for JNK Inhibitor Molecules for Treatment of Various Diseases” (XIGEN INFLAMMATION LTD., priority 2013, published 2016):
Square brackets hold non-standard residues; d marks the D form. Peptide text beside a SMILES is read from it.

How the values were obtained:
[1] = system: IMQ-induced psoriasis in BALB/c mice; experiment: Imiquimod-induced psoriasis in mice, ear histopathology; type: in vivo, mouse
Method: Female BALB/cAnNCrl mice (Charles River, age 8 to 10 weeks at study start) have been assigned to the following groups (treatment schedule):
In this experiment, two positive controls have been utilized. Firstly, Prednisolone at 10 mg/kg (vehicle: 1% Hydroxyethylcellulose, 0.25% Polysorbate 80, and 0.05% Antifoam in purified water) has been dosed daily and orally (group “Prednisolone”). Secondly, Dexamethasone has been administered at 0.5 mg/kg (vehicle: sterile 0.9% NaCl) on days 1, 4 and 7 via intravenous route.
On day 8, animals have been sacrificed and the tissue (ear) has been fixed in 10% neutral buffered formalin. For histopathology hematoxylin-and-eosin-stained sections (cross cut) have been prepared and microscopic evaluation on the collected tissues from all animals has been performed. Methods and end-points for histopathology were similarly described in the van der Fits (2009) paper in that inflammation, epidermal hyperplasia, epidermal hyperkeratosis (rather than parakeratosis) were observed and recorded for severity grade, whereby the respective methodology from Van der Fits et al. (The Journal of Immunology 2009, 182, P. 5836-5845) is hereby incorporated by reference. Histopathology grading scores were excluded for either skin or ear in animals with secondary inflammatory processes (full thickness epidermal ulcers). Scores were averaged by group and standard deviation and statistical significance were calculated. […] Formalin-fixed, paraffin embedded skin from the dorsal surface of the mouse (BALB/c) was stained with hematoxylin and eosin (H&E) stain and assessed microscopically. An important difference from the above reference and to describe in more detail the observations of the present study: Hyperkeratosis can be defined specifically as orthokeratotic (no retained nuclei) or parakeratotic (retained nuclei). Either can occur normally in various anatomical locations and depending on species; however, both conditions are well defined in particular disease states. The van der Fits paper describes their Imiquimod (IMQ)-induced psoriasis model as causing parakeratotic hyperkeratosis similar to what is seen in the human condition, and that was a defined end-point for this study. However, the Danilenko et al. (Veterinary Pathology 2008 45:563) has shown that many rodent psoriasis models have orthokeratotic hyperkeratosis. […] The more general term ‘hyperkeratosis’ was used for grading end-points and describe in the text what type was seen (primarily orthokeratotic).
1=MI=minimal 2=SL=slight 3=M0=moderate 4=MA=marked 5=SE=severe

[2] = dissolved in 0.9% NaCl, up to 0.4 mg/ml
Source text: To receive three different doses (cf. above, groups table) it has been serially diluted (1:10 fold).

[3] = system: Primary Rat Whole Blood Cells; experiment: Cytokine release in rat whole blood stimulated with LPS or PMA+ionomycin; type: cell-based; conditions: 10 μM inhibitor, PMA+ionomycin 25/500, 50/750, 50/1000 ng/mL, 4 h
Method: Given are the results for the control, 1 μM of SEQ ID NO: 172, 3 μM of SEQ ID NO: 172, and 10 μM of SEQ ID NO: 172 at different levels of LPS (ng/ml).
FIG. 17 Dose dependent inhibition of IL-2 release in rat whole blood stimulated with PMA+ionomycin. JNK inhibitor with SEQ ID NO: 172 was added at three different concentrations, namely 1, 3 and 10 μM 1 h before stimulation with PMA+ionomycin. Three doses of activators were added (25/500 ng/mL, 50/750 ng/mL and 50/1000 ng/mL) for 4 h. IL-2 release was assessed in supernatant.
Whole blood is collected from anesthetized rat or human healthy volunteers using a venipuncture connected to a pre-labeled vacuum tube containing sodium citrate. Tubes are gently mixed by inversion 7-8 times; and are then kept at RT until stimulation. JNK inhibitor of SEQ ID NO: 172 is prepared 6 times concentrated in PBS, and 30 μl/well of mix is added into 96-well plate. Whole blood is diluted by 1:2 in PBS and 120 μl of diluted blood is added in each well where either PBS alone or JNK inhibitor of SEQ ID NO: 172 has been previously added. Whole blood is incubated at 37° C.; 85 rpm (Stuart Orbital incubator SI500) for 60 min. […] Cytokine (IL-6, IL-2, IFNγ and TNFα) were then measured using standard Elisa kits (e.g. from R&D Systems: DuoSet Elisas; or from BD Biosciences: BD Opteia Set Elisa). Results are expressed as pg/ml of supernatant of the measured cytokine. […]

With `CC(C)C[C@H](NC(=O)[C@H](CC(N)=O)NC(=O)[C@H](CC(C)C)NC(=O)[C@@H](NC(=O)[C@@H](C)NC(=O)[C@@H]1CCCN1C(=O)[C@H](CCCNC(=N)N)NC(=O)[C@@H](CCCCN)NC(=O)[C@@H]1CCCN1C(=O)[C@H](CCCNC(=N)N)NC(=O)[C@@H](CCCNC(=N)N)NC(=O)[C@H](CCCNC(=N)N)NC(=O)[C@H](CCCNC(=N)N)NC(=O)[C@H](CCC(N)=O)NC(=O)[C@@H](CCCNC(=N)N)NC(=O)[C@H](CCCNC(=N)N)NC(=O)[C@H](CCCCN)NC(=O)[C@H](CCCCN)NC(=O)[C@H](N)CCCNC(=N)N)[C@@H](C)O)C(=O)N[C@H](Cc1ccccc1)C(N)=O` [SEQ ID NO: 172, rKKRrQRRrRPkRPaTLNLf] (H-[dR]KKR[dR]QRR[dR]RP[dK]RP[dA]TLNL[dF]-NH2) the “inflammation of the ear (average histopathology grade) vs vehicle-IMQ group” value ([1]; high-dose 2 mg/kg IV days 1, 4, 7) was “decreased inflammation of the ear”, the “epidermal hyperkeratosis of the ear, average grades vs vehicle-IMQ group” value ([1]; low-dose 0.02 mg/kg IV days 1, 4, 7) was “minimally decreased average grades” and the “inflammation of the ear (average histopathology grade) vs vehicle-IMQ group” value ([1]; mid-dose 0.2 mg/kg IV days 1, 4, 7, statistically significant, 0.2 mg/kg) was “decreased inflammation of the ear”. For the same molecule, the “inflammation of the ear (average histopathology grade) vs vehicle-IMQ group” value ([1]; mid-dose 0.2 mg/kg IV days 1, 4, 7, statistically significant, listed as XG-104, 0.2 mg/kg) was “significant differences from the vehicle control group”, the “epidermal hyperplasia of the ear vs vehicle-IMQ group” value ([1]; mid-dose 0.2 mg/kg IV, not statistically significant) was “Minimal decreases in epidermal hyperplasia of the ear” and the solubility [2] was “readily soluble”. The “PMA-iono-induced IL-2 release” value [3] was “efficiently reduce”.
